Source: patent publication US5872124A, “Treatment of diseases of the central nervous system using uric acid as a scavenger of peroxynitrite” (Thomas Jefferson University, priority 1996, dated 1999)

Tested on: experimental allergic encephalomyelitis (EAE), PLP immunization
Assay: Clinical severity of PLP-induced EAE in SWXJ-14 mice
Assay type: in vivo
Conditions: started 4-5 days after immunization with myelin antigens
Method: FIG. 2. Effect of daily administration of c-PTIO (carboxy-PTIO) on EAE in SWXJ-14 mice. EAE was induced in SWJX-14 mice by two subcutaneous immunizations (d.0 and d.7) of […] PLP in CFA over two injection sites. Mice (N=3) were treated beginning on day 5 post-immunization with 2 mg/mouse c-PTIO […] i.p. and was continued until day 16 post-immunization (day 0 being the day of first immunization). Mean severity scores were graded as detailed in Table 1.
FIG. 4. Effect of D609 on the development of EAE in SWXJ-14 mice. SWXJ-mice were immunized with PLP as detailed for FIG. 2. Mice (n=2) were treated i.p. with 1 mg/mouse D609 from day 5 through day 14 post-immunization. Mean severity scores were graded as detailed in Table 1.
FIG. 12. Effect of the administration of various doses of uric acid on EAE in SWXJ-14 mice. EAE was induced in SWXJ-14 mice by two subcutaneous immunizations (d.0 and 7) of […] PLP in CFA over two injection sites. Mice (n=5) were treated once daily, beginning on day 5 post-immunization, with the indicated doses of uric acid. Mean severity scores were graded as detailed in Table 1.
Induction of EAE in rats by adoptive transfer of MBP-specific T cells or in SJL or SWXJ-14 mice by immunization with MBP or PLP 139-151, a peptide derived from […] [8], results in variable disease. We have scored the clinical systems of EAE as tabulated below.
Severity scores and symptoms of Experimental Allergic
1 piloerection, tail weakness
3 hind limb weakness/paralysis
4 hind and forelimb paralysis
In FIG. 1, EAE was elicited in 11 week old female Lewis rats by the adoptive transfer of 20×10^6 cells of the MBP-specific line 5HGBP.G5 activated by stimulation with MBP and syngeneic APC 48 hours previously and NO levels measured 5 days after transfer. In SWXJ-14 mice, EAE was triggered by two subcutaneous immunizations (d.0 and 7) with 100 μg PLP in CFA over two injection sites, and NO levels measured 18 days later. Results expressed represent the mean values obtained from a minimum of 4 animals. Peak severity of the symptoms of EAE ranged from 2-3 for the rats and 4-5 for the mice. NO was semi-quantitated using spin trapping with DETC and EPR-spectroscopy as described previously.
Clinical symptoms manifest as an ascending paralysis approximately 13 days after immunization and the disease rapidly progresses to its fatal endpoint by day 16-20. […] NO levels in the brains and spinal cords of animals treated with a single daily dose of PTIO were semi-quantitated by spin trapping and EPR spectroscopy on day 17 after immunization, one day after treatment was terminated. […] We expect that the removal of NO by PTIO should not necessarily interfere with the induction of the response responsible for NO production and that as the supplied PTIO is used up NO levels should rapidly return to control values.
In contrast to SJL mice, SWX mice immunized with PLP undergo a progressive,often fatal form of EAE. Clinical symptoms manifest as an ascending paralysis approximately 13 days after immunization and the disease rapidly progresses to its fatal endpoint by days 16-20. […] We conclude that the amount of carboxy-PTIO we administered, especially considering the short in vivo half life of the compound, was only sufficient to delay the onset of the EAE in the SWXJ-14 mouse.
NO is not universally considered to be a molecule with significant in vivo toxicity and peroxynitrite is thought to be the more toxic molecule produced by activated inflammatory cells resulting from the interaction of NO and superoxide. We would henceforth expect that removal of NO would reduce peroxynitrite formation. To determine whether NO or peroxynitrite is more likely to be ultimately responsible for clinical disease in EAE we have performed a series of experiments using uric acid, a known scavenger of peroxynitrite, to treat EAE induced in SWXJ-14 mice by immunization with PLP.

In the case of `CC1(C)N([O])C(c2ccccc2)=[N+]([O-])C1(C)C` [PTIO, 2-phenyl-4,4,5,5-tetramethylimidazoline-1-oxyl-3-oxide], the “Effectiveness when treatment is started after immunization” value is reported as “effective when started 4-5 days after immunization with myelin antigens”.
